According to patent publication US10239889B1, “Pentacyclic compound” (Eisai R&D Management Co., Ltd., priority 2017, dated 2019):

Tested on: Choline Acetyltransferase (ChAT) mRNA
Experiment: Measurement of choline acetyltransferase (ChAT) mRNA expression levels in the rat septal area
Type: in vivo
Settings: SD rat medial septum, oral 10 mg/kg, 24 hours after administration, qPCR
Experimental: Measurement of Choline Acetyltransferase (ChAT) mRNA Expression Levels in the Rat Septal Area
(1) Compound Administration
In this study, SD male rats (Charles River Laboratories Japan, Inc.) with a body weight of about 250 to 350 g were used. The compound was dissolved in 0.01 mol/L hydrochloric acid, and orally administered.
At 24 hours after the administration of the compound, the whole brain tissue was collected under pentobarbital anesthesia. The medial septum was isolated from whole brain on ice and frozen with liquid nitrogen, and then stored at −80° C.
(3) Measurement of ChAT mRNA Expression Levels
For RNA purification, RNeasy Plus Mini Kit (#74136: QIAGEN) was used in this study. RNA purification was performed by the method described in the kit. After RNA purification, the total RNA concentration was measured by using QIAxpert Instrument (QIAGEN). cDNA was synthesized using SuperScript® VILO™ cDNA Synthesis Kit (#11754: Thermo Fisher Scientific). The synthesis of cDNA was performed by the method described in the kit. The synthesized cDNA was diluted 4 times with RNase free water, and the diluted cDNA solution was used as a sample. Taqman Universal PCR Master Mix (#4304437: Thermo Fisher Scientific), Taqman® Gene Expression Assays, INVENTORIED (#4331182: Thermo Fisher Scientific), RNase free water, and the cDNA solution were mixed in amounts of 10 μl, 1 μl, 4 μl, and 5 μl, respectively, and the resulting mixture was used as a measurement sample solution. Quantitative polymerase chain reaction (qPCR) was conducted using ABI PRISM® 7900HT (Thermo Fisher Scientific) by a fluorescence probe method. Analysis was performed by SDS 2.4 (Thermo Fisher Scientific). The results were calculated by the percentage of the amount of ChAT mRNA expression levels in the compound administration group increased from the amount of ChAT mRNA expression levels in the vehicle administration group.

Compound	Amount (%) increased from the amount of ChAT mRNA expression levels in the vehicle administration group [%]
CN1CCc2c(sc3nc4n(c(=O)c23)-c2ccc(F)cc2C(=O)N(C)C4)C1 [Example 1]	73.3
CN1CCc2c(sc3nc4n(c(=O)c23)-c2sccc2C(=O)N(C)C4)C1 [Example 3, 5,10-dimethyl-5,6,9,10,11,12-hexahydropyrido[4″,3″:4′,5′]thieno[2′,3′:4,5]pyrimido[1,2-a]thieno[3,2-f][1,4]diazepine-4,13-dione]	56.4
